Here are results for 17 compounds from patent publication US11787810B2, “Diacylglyceride O-acyltransferase 2 inhibitors” (Merck Sharp & Dohme Corp., priority 2020, dated 2023).

SMILES strings stand for the structures.

The first assay deals with human DGAT2 (hDGAT2) (Homo sapiens (Human), UniProt Q96PD7). As to the kind of experiment: DGAT2 enzymatic activity assay (13C18-triolein formation, LC/MS/MS). Conditions: hDGAT2 Sf-9 membrane prep, 25 μM diolein, 5 μM 13C oleoyl-CoA; read-out: Human DGAT2 IC50. Type of assay: biochemical. How it is done: Sf-9 insect cells were maintained in Grace's insect cell culture medium with 10% heated-inactivated fetal bovine serum, 1% Pluronic F-68 and 0.14 μg/ml Kanamycine sulfate at 27° C. in a shaker incubator. After infection with untagged baculovirus expressing human DGAT2 (hDGAT2) at multiplicity of infection (MOI) 3 for 48 hours, cells were harvested. Cell pellets were suspended in buffer containing 10 mM Tris-HCl pH 7.5, 1 mM EDTA, 250 mM sucrose and Complete Protease Inhibitor Cocktail (Sigma Aldrich), and sonicated on ice. Cell debris were removed by centrifugation at 2000×g for 15 minutes. Membrane fractions were isolated by ultracentrifugation (100,000×g), resuspended in the same buffer, and frozen (−80° C.) for later use. The protein concentration was determined with the Pierce™ BCA Protein Assay Kit (Thermo Fisher Scientific). Expression of protein levels was analyzed by immunoblotting with rabbit anti-DGAT2 antibody (Abcam, ab102831) and donkey anti-rabbit IgG H&L Alexa Fluor® 647 (Abcam, ab150075) followed by detection using Typhoon FLA9000 (GE Healthcare).
human DGAT2 (hDGAT2), sequence (Q96PD7 whole entry): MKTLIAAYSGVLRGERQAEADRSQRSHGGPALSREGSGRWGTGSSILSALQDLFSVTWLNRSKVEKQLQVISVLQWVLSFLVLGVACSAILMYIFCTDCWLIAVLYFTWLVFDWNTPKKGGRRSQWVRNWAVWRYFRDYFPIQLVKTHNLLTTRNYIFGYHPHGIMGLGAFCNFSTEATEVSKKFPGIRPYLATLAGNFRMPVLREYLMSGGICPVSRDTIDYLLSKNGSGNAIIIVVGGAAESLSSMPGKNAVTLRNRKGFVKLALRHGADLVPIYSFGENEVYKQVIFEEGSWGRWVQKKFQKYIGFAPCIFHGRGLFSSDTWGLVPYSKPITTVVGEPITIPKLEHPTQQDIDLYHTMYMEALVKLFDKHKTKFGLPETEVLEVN
LC/MS/MS analyses were performed using Thermal Fisher's LX4-TSQ Vantage system. This system consists of an Agilent binary high-performance liquid chromatography (HPLC) pumps and a TSQ Vantage triple quadrupole MS/MS instrument. For each sample, 2 μL samples from the top organic layer of in-plate liquid-liquid extraction were injected onto a Thermo Betabasic C4 column (2.1 mm×20 mm, 5 μm particle size). The samples were then eluted using the following conditions; mobile phase: Isopropanol:acetonitrile/10 mM ammonium formate=50/35/15 (v/v/v), flow rate: 0.8 mL/min, temperature: 25° C. Data was acquired in positive mode using a heated electrospray ionization (HESI) interface. The operational parameters for the TSQ Vantage MS/MS instrument were a spray voltage of 3000 V, capillary temperature of 280° C., vaporizer temperature 400° C., sheath gas 45 arbitrary unit, Aux gas 10 arbitrary units, S-lens 165 and collision gas 1.0 mTorr. […] (SRM) chromatograms of ^13C18-triolein (Q1: 920.8>Q3:621.3) and internal standard ^13C21-triolein (Q1: 923.8>Q3:617.3) were collected for 33 sec. The peak area was integrated by Xcalibur Quan software. The ratio between the ^13C18triolein generated in the reaction and spiked in internal standard ^13C21-triolein was used to generate percentage inhibition and IC50 values. Compound percentage inhibition was calculated by the following formula: Inhibition %=1-[(compound response−low control)/(high control−low control)]×100%. Potent compounds were titrated and IC50 were calculated by 4 parameter sigmoidal curve fitting formula.
DGAT2 activity was determined by measuring the amount of enzymatic product ^13C18-triolein (^13C-1,2,3-Tri(cis-9-octadecenoyl)glycerol) using the membrane prep mentioned above. The assay was carried out in ABgene 384-well assay plates in a final volume of 25 μL at rt. The assay mixture contained the following: assay buffer (100 mM Tris·Cl, pH 7.0, 20 mM MgCl2, 5% ethanol), 25 μM of diolein, 5 μM of ^13C oleoyl-CoA and 8 ng/μL of DGAT2 membrane.
For the compound `CC1(NC(=O)c2cnc3c(-c4cccc(OC(F)F)c4)nn(C4CCOC(C(F)(F)F)C4)c3c2)CS(=O)(=O)C1` (single isomer, unassigned) [Example 76b, 3-(3-(difluoromethoxy)phenyl)-N-(3-methyl-1,1-dioxidothietan-3-yl)-1-(2-(trifluoromethyl)tetrahydro-2H-pyran-4-yl)-1H-pyrazolo[4,3-b]pyridine-6-carboxamide], the IC50 came out at 211 nM.

As for `CC1(NC(=O)c2cnc3c(-c4cccc(OC(F)F)c4)nn(C4CCOC(C)(C)C4)c3c2)CS(=O)(=O)C1` (single isomer, unassigned) [Example 77a, 3-(3-(difluoromethoxy)phenyl)-1-(2,2-dimethyltetrahydro-2H-pyran-4-yl)-N-(3-methyl-1,1-dioxidothietan-3-yl)-1H-pyrazolo[4,3-b]pyridine-6-carboxamide], the half-maximal inhibitory concentration (IC50) came out at 140 nM.

Turning to `CC1(NC(=O)c2cnc3c(-c4cccc(OC(F)F)c4)nn(C4CCOC(C)(C)C4)c3c2)CS(=O)(=O)C1` (single isomer, unassigned) [Example 77b, 3-(3-(difluoromethoxy)phenyl)-1-(2,2-dimethyltetrahydro-2H-pyran-4-yl)-N-(3-methyl-1,1-dioxidothietan-3-yl)-1H-pyrazolo[4,3-b]pyridine-6-carboxamide], the IC50 came out at 7.4 nM.

For the compound `CC(O)C(C)n1nc(-c2cccc(OC(F)F)c2)c2ncc(C(=O)NC3(C)CS(=O)(=O)C3)cc21` (single isomer, unassigned) [Example 78a, 3-(3-(difluoromethoxy)phenyl)-1-(3-hydroxybutan-2-yl)-N-(3-methyl-1,1-dioxidothietan-3-yl)-1H-pyrazolo[4,3-b]pyridine-6-carboxamide], the IC50 came out at 1730 nM.

On to `CC(O)C(C)n1nc(-c2cccc(OC(F)F)c2)c2ncc(C(=O)NC3(C)CS(=O)(=O)C3)cc21` (single isomer, unassigned) [Example 78b, 3-(3-(difluoromethoxy)phenyl)-1-(3-hydroxybutan-2-yl)-N-(3-methyl-1,1-dioxidothietan-3-yl)-1H-pyrazolo[4,3-b]pyridine-6-carboxamide], for which the IC50 was 4.4 nM.

Take `CC(O)C(C)n1nc(-c2cccc(OC(F)F)c2)c2ncc(C(=O)NC3(C)CS(=O)(=O)C3)cc21` (single isomer, unassigned) [Example 78c, 3-(3-(difluoromethoxy)phenyl)-1-(3-hydroxybutan-2-yl)-N-(3-methyl-1,1-dioxidothietan-3-yl)-1H-pyrazolo[4,3-b]pyridine-6-carboxamide]: the IC50 was determined as 121 nM.

For the compound `CC(O)C(C)n1nc(-c2cccc(OC(F)F)c2)c2ncc(C(=O)NC3(C)CS(=O)(=O)C3)cc21` (single isomer, unassigned) [Example 78d, 3-(3-(difluoromethoxy)phenyl)-1-(3-hydroxybutan-2-yl)-N-(3-methyl-1,1-dioxidothietan-3-yl)-1H-pyrazolo[4,3-b]pyridine-6-carboxamide], the IC50 is 47 nM.

Turning to `CC1(C#N)CC(n2nc(-c3cccc(OC(F)F)c3)c3ncc(C(=O)NC4(C)CS(=O)(=O)C4)cc32)C1` (single isomer, unassigned) [Example 87a, 1-(3-cyano-3-methylcyclobutyl)-3-(3-(difluoromethoxy)phenyl)-N-(3-methyl-1,1-dioxidothietan-3-yl)-1H-pyrazolo[4,3-b]pyridine-6-carboxamide], the IC50 was 70 nM.

In the case of `CC1(C#N)CC(n2nc(-c3cccc(OC(F)F)c3)c3ncc(C(=O)NC4(C)CS(=O)(=O)C4)cc32)C1` (single isomer, unassigned) [Example 87b, 1-(3-cyano-3-methylcyclobutyl)-3-(3-(difluoromethoxy)phenyl)-N-(3-methyl-1,1-dioxidothietan-3-yl)-1H-pyrazolo[4,3-b]pyridine-6-carboxamide], the IC50 is 270 nM.

Still in this assay, the particulars now being: table head without 'Human'; same membrane assay; read-out: DGAT2 IC50.
Turning to `CC(n1nc(-c2cccc(OC(F)F)c2)c2ncc(C(=O)NC3(C)CS(=O)(=O)C3)cc21)C(C)(C)O` (single isomer, unassigned) [Example 130a, 3-(3-(difluoromethoxy)phenyl)-1-(3-hydroxy-3-methylbutan-2-yl)-N-(3-methyl-1,1-dioxidothietan-3-yl)-1H-pyrazolo[4,3-b]pyridine-6-carboxamide], the IC50 stood at 2.8 nM.

For the compound `CC(n1nc(-c2cccc(OC(F)F)c2)c2ncc(C(=O)NC3(C)CS(=O)(=O)C3)cc21)C(C)(C)O` (single isomer, unassigned) [Example 130b, 3-(3-(difluoromethoxy)phenyl)-1-(3-hydroxy-3-methylbutan-2-yl)-N-(3-methyl-1,1-dioxidothietan-3-yl)-1H-pyrazolo[4,3-b]pyridine-6-carboxamide], the 50% inhibitory concentration (IC50) stood at 80 nM.

For `CC(n1nc(-c2cc(OC(F)F)ccc2F)c2ncc(C(=O)NC3(C)CS(=O)(=O)C3)cc21)C(C)(C)O` (single isomer, unassigned) [Example 131a, 3-(5-(difluoromethoxy)-2-fluorophenyl)-1-(3-hydroxy-3-methylbutan-2-yl)-N-(3-methyl-1,1-dioxidothietan-3-yl)-1H-pyrazolo[4,3-b]pyridine-6-carboxamide], the IC50 stood at 11 nM.

On to `CC(n1nc(-c2cc(OC(F)F)ccc2F)c2ncc(C(=O)NC3(C)CS(=O)(=O)C3)cc21)C(C)(C)O` (single isomer, unassigned) [Example 131b, 3-(5-(difluoromethoxy)-2-fluorophenyl)-1-(3-hydroxy-3-methylbutan-2-yl)-N-(3-methyl-1,1-dioxidothietan-3-yl)-1H-pyrazolo[4,3-b]pyridine-6-carboxamide], for which the IC50 is 110 nM.

On to `CC(n1nc(-c2cc(OC(F)(F)F)ccc2F)c2ncc(C(=O)NC3(C)CS(=O)(=O)C3)cc21)C(C)(C)O` (single isomer, unassigned) [Example 132a, 3-(2-fluoro-5-(trifluoromethoxy)phenyl)-1-(3-hydroxy-3-methylbutan-2-yl)-N-(3-methyl-1,1-dioxidothietan-3-yl)-1H-pyrazolo[4,3-b]pyridine-6-carboxamide], for which the IC50 was 231 nM.

On to `CC(n1nc(-c2cc(OC(F)(F)F)ccc2F)c2ncc(C(=O)NC3(C)CS(=O)(=O)C3)cc21)C(C)(C)O` (single isomer, unassigned) [Example 132b, 3-(2-fluoro-5-(trifluoromethoxy)phenyl)-1-(3-hydroxy-3-methylbutan-2-yl)-N-(3-methyl-1,1-dioxidothietan-3-yl)-1H-pyrazolo[4,3-b]pyridine-6-carboxamide], for which the IC50 was determined as 215 nM.

Turning to `CC(n1nc(-c2cc(OC(F)F)ncc2F)c2cnc(C(=O)NC3(C)CS(=O)(=O)C3)cc21)C(C)(C)O` (single isomer, unassigned) [Example 133a, 3-(2-(difluoromethoxy)-5-fluoropyridin-4-yl)-1-(3-hydroxy-3-methylbutan-2-yl)-N-(3-methyl-1,1-dioxidothietan-3-yl)-1H-pyrazolo[4,3-c]pyridine-6-carboxamide], the IC50 came out at 862 nM.

As to `CC(n1nc(-c2cc(OC(F)F)ncc2F)c2cnc(C(=O)NC3(C)CS(=O)(=O)C3)cc21)C(C)(C)O` (single isomer, unassigned) [Example 133b, 3-(2-(difluoromethoxy)-5-fluoropyridin-4-yl)-1-(3-hydroxy-3-methylbutan-2-yl)-N-(3-methyl-1,1-dioxidothietan-3-yl)-1H-pyrazolo[4,3-c]pyridine-6-carboxamide], the IC50 came out at 15 nM.
